Here are results for 3 compounds from US12077503B2, “Substituted cyclic amides and their use as herbicides” (FMC CORPORATION, priority 2015, dated 2024).

Common to all, as to format: in vivo
In assay [1] the test system is giant foxtail (Setaria faberii). Description: Test A postemergence. The settings on record: Setaria faberi, post-emergence, 240 h; for pest or weed control at 125 g/ha: 125 g ai/ha, postemergence. In short, it runs like this: (§1)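 Visual injury scores from 0, no effect, to 100, complete control, were assigned versus untreated controls roughly 10 d after treatment in the greenhouse. Test chemicals, formulated with surfactant in a non-phytotoxic solvent, were applied to planted seeds as a preemergence soil spray or postemergence to one- to two-leaf plants 2 to 10 cm tall, in loam–sand soil.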

For assay [2], the system named is pigweed (Amaranthus retroflexus). As to the kind of experiment: Test A postemergence. Conditions: Amaranthus retroflexus, post-emergence, 240 h; for pest or weed control at 125 g/ha: 125 g ai/ha, postemergence. The gist of the method:
as §1

For assay [3], the system named is ryegrass, Italian (Italian ryegrass, Lolium multiflorum). Description: Test A postemergence. The settings on record: Lolium multiflorum, post-emergence, 240 h; for pest or weed control at 125 g/ha: 125 g ai/ha, postemergence. The gist of the method: as §1
The subject of assay [4] is wheat (Triticum aestivum). Description: Test A postemergence. The settings on record: Triticum aestivum, post-emergence, 240 h; for plant injury at 125 g/ha: 125 g ai/ha, postemergence. In short, it runs like this:
as §1

Assay [5] concerns blackgrass (Alopecurus myosuroides). As to the kind of experiment: Test A postemergence. Conditions: Alopecurus myosuroides, post-emergence, 240 h; for pest or weed control at 125 g/ha: 125 g ai/ha, postemergence. The gist of the method: as §1
Assay [6] relates to Galium (catchweed bedstraw, Galium aparine). As to the kind of experiment: Test A postemergence. Conditions: Galium, post-emergence, 240 h; for pest or weed control at 125 g/ha: 125 g ai/ha, postemergence. In short, it runs like this:
as §1

Assay [7] concerns ragweed (common ragweed, Ambrosia elatior). Description: Test A postemergence. Conditions: Ambrosia artemisiifolia, post-emergence, 240 h; for pest or weed control at 125 g/ha: 125 g ai/ha, postemergence. In short, it runs like this:
as §1

The test system of assay [8] is barnyardgrass (Echinochloa crus-galli). Description: Test A postemergence. The settings on record: Echinochloa crus-galli, post-emergence, 240 h; for pest or weed control at 125 g/ha: 125 g ai/ha, postemergence. The gist of the method: as §1
The subject of another assay is Kochia (Kochia scoparia). Description: Test A postemergence. The settings on record: Bassia scoparia, post-emergence, 240 h; for pest or weed control at 125 g/ha: 125 g ai/ha, postemergence. The gist of the method: as §1
The test system of another assay is corn (Zea mays). Description: Test A postemergence. Conditions: Zea mays, post-emergence, 240 h; for Corn plant response rating (crop injury, 0 = no effect, 100 = complete kill) at 125 g/ha: visual injury after approximately 10 d, 0 to 100 scale (0 no effect, 100 complete control). The gist of the method:
as §1

The subject of assay [9] is ducksalad (Heteranthera limosa). Description: Test B flooded paddy test. The settings on record: Heteranthera limosa, Flood, 250 g ai/ha; scale of 0 to 100 where 0 is no effect and 100 is complete control; read-out: Ducksalad plant response rating. In short, it runs like this: (§2)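 Visual ratings (0 none to 100 complete control) are relative to untreated plants, taken 13–15 d after treatment in a greenhouse. Test material went straight into floodwater standing 3 cm above the soil, kept constant, on plants at the 2-leaf stage.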

The test system of the next assay is rice (Oryra sativa). As to the kind of experiment: Test B flooded paddy test. Conditions: Oryza sativa, Flood, 250 g ai/ha; scale of 0 to 100 where 0 is no effect and 100 is complete control; read-out: Rice plant response rating. In short, it runs like this: as §2
Assay [10] has as its system barnyardgrass (Echinochloa crus-galli). As to the kind of experiment: Test B flooded paddy test. The settings on record: Echinochloa crus-galli, Flood, 250 g ai/ha; scale of 0 to 100 where 0 is no effect and 100 is complete control; read-out: Barnyardgrass plant response rating. The gist of the method: as §2
The subject of assay [11] is sedge, umbrella (small-flower umbrella sedge, Cyperus difformis). Description: Test B flooded paddy test. Conditions: Cyperus difformis, Flood, 250 g ai/ha; scale of 0 to 100 where 0 is no effect and 100 is complete control; read-out: Sedge, Umbrella plant response rating. In short, it runs like this: as §2
Where [12] appears, read: visual injury after approximately 10 d, 0 to 100 scale (0 no effect, 100 complete control), read-out: Plant response rating, Foxtail, Giant.
The mark [13] stands for this setting: visual injury after approximately 10 d, 0 to 100 scale (0 no effect, 100 complete control), read-out: Plant response rating, Pigweed.
The mark [14] stands for this setting: visual injury after approximately 10 d, 0 to 100 scale (0 no effect, 100 complete control), read-out: Plant response rating, Ryegrass, Italian.
The mark [15] stands for this setting: visual injury after approximately 10 d, 0 to 100 scale (0 no effect, 100 complete control), read-out: Plant response rating, Wheat.
Where [16] appears, read: visual injury after approximately 10 d, 0 to 100 scale (0 no effect, 100 complete control), read-out: Plant response rating, Blackgrass.
Where [17] appears, read: visual injury after approximately 10 d, 0 to 100 scale (0 no effect, 100 complete control), read-out: Plant response rating, Galium.
[18] abbreviates: visual injury after approximately 10 d, 0 to 100 scale (0 no effect, 100 complete control), read-out: Plant response rating, Ragweed.
The mark [19] stands for this setting: visual injury after approximately 10 d, 0 to 100 scale (0 no effect, 100 complete control), read-out: Plant response rating, Barnyardgrass.
The mark [20] stands for this setting: visual injury after approximately 10 d, 0 to 100 scale (0 no effect, 100 complete control), read-out: Plant response rating, Kochia.

Each structure is given as a SMILES string. Where two headings read alike, the source gives them in different places.

For `O=C1NC[C@H](c2ccc(C3CC3)cc2)[C@H]1C(=O)Nc1ccccc1F` [Compound 727], the pest or weed control at 125 g/ha in assay [1] (setting [12]) is 40%; in [2] (setting [13]) it was 0%; in assay [3] (setting [14]), 0%; in [5] (setting [16]), 30%; in [6] (setting [17]), 0%; in assay [7] (setting [18]) it was 0%. For the same compound, the pest or weed control at 125 g/ha came to 80% in assay [8] (setting [19]) and 0% in the assay with Kochia (Kochia scoparia) (setting [20]). Further, the plant injury at 125 g/ha in assay [4] (setting [15]) worked out at 0%. In the assay with corn (Zea mays) (125 g ai/ha, postemergence), this compound returned a Corn plant response rating (crop injury, 0 = no effect, 100 = complete kill) at 125 g/ha of 0%. Moreover, the pest or weed control at 250 g/ha was 75% in assay [9], 25% in the assay with rice (Oryra sativa), 0% in assay [10] and 0% in assay [11].

Regarding `CN1CC[C@H](c2ccc3c(c2)OC(F)(F)O3)[C@@H](C(=O)Nc2cccc(F)c2F)C1=O` [Compound 812], the pest or weed control at 125 g/ha was determined as 90% in [1] (visual injury rating after approximately 10 d, read-out: Foxtail, Giant plant response rating (0 to 100 scale, 0 no effect, 100 complete control)); 0% in assay [2] (visual injury rating after approximately 10 d, read-out: Pigweed plant response rating (0 to 100 scale, 0 no effect, 100 complete control)); 30% in assay [3] (visual injury rating after approximately 10 d, read-out: Ryegrass, Italian plant response rating (0 to 100 scale, 0 no effect, 100 complete control)); 80% in assay [5] (visual injury rating after approximately 10 d, read-out: Blackgrass plant response rating (0 to 100 scale, 0 no effect, 100 complete control)); 50% in assay [6] (visual injury rating after approximately 10 d, read-out: Galium plant response rating (0 to 100 scale, 0 no effect, 100 complete control)); 0% in assay [7] (visual injury rating after approximately 10 d, read-out: Ragweed plant response rating (0 to 100 scale, 0 no effect, 100 complete control)). In addition, the pest or weed control at 125 g/ha in assay [8] (visual injury rating after approximately 10 d, read-out: Barnyardgrass plant response rating (0 to 100 scale, 0 no effect, 100 complete control)) amounted to 90%; in the assay with Kochia (Kochia scoparia) (visual injury rating after approximately 10 d, read-out: Kochia plant response rating (0 to 100 scale, 0 no effect, 100 complete control)), 20%. Also, the pest or weed control at 31 g/ha in [1] (Postemergence, 31 g ai/ha, visual injury after approx. 10 d, 0 to 100 scale, 0 no effect, 100 complete control, read-out: Plant response rating, Foxtail, Giant) is 70%; in [2] (Postemergence, 31 g ai/ha, visual injury after approx. 10 d, 0 to 100 scale, 0 no effect, 100 complete control, read-out: Plant response rating, Pigweed), 0%; in assay [3] (Postemergence, 31 g ai/ha, visual injury after approx. 10 d, 0 to 100 scale, 0 no effect, 100 complete control, read-out: Plant response rating, Ryegrass, Italian) it was 0%; in [5] (Postemergence, 31 g ai/ha, visual injury after approx. 10 d, 0 to 100 scale, 0 no effect, 100 complete control, read-out: Plant response rating, Blackgrass) it was 40%; in assay [6] (Postemergence, 31 g ai/ha, visual injury after approx. 10 d, 0 to 100 scale, 0 no effect, 100 complete control, read-out: Plant response rating, Galium), 20%; in assay [7] (Postemergence, 31 g ai/ha, visual injury after approx. 10 d, 0 to 100 scale, 0 no effect, 100 complete control, read-out: Plant response rating, Ragweed), 0%. Moreover, the pest or weed control at 31 g/ha in [8] (Postemergence, 31 g ai/ha, visual injury after approx. 10 d, 0 to 100 scale, 0 no effect, 100 complete control, read-out: Plant response rating, Barnyardgrass) came out at 90%; in the assay with Kochia (Kochia scoparia) (Postemergence, 31 g ai/ha, visual injury after approx. 10 d, 0 to 100 scale, 0 no effect, 100 complete control, read-out: Plant response rating, Kochia) it was 0%. Besides, the plant injury at 125 g/ha in [4] (visual injury rating after approximately 10 d, read-out: Wheat plant response rating (0 to 100 scale, 0 no effect, 100 complete control)) is 60%; in the assay with corn (Zea mays) (125 g ai/ha, postemergence, visual injury rating after approximately 10 d, read-out: Corn plant response rating (0 to 100 scale, 0 no effect, 100 complete control)), 80%. Further, in assay [4] (Postemergence, 31 g ai/ha, visual injury after approx. 10 d, 0 to 100 scale, 0 no effect, 100 complete control, read-out: Plant response rating, Wheat), the plant injury at 31 g/ha was found to be 20%. Moreover, the Corn plant response rating (crop injury, 0 = no effect, 100 = complete kill) at 31 g/ha with corn (Zea mays) (Postemergence, 31 g ai/ha, visual injury after approx. 10 d, 0 to 100 scale, 0 no effect, 100 complete control) was determined as 30%. Moreover, the pest or weed control at 250 g/ha worked out at 90% in [9], 0% in the assay on rice (Oryra sativa), 85% in [10] and 0% in assay [11].

`Cc1ccc([C@H]2CN(C)C(=O)[C@@H]2C(=O)Nc2ccccc2S(C)(=O)=O)cc1C` [Compound 734]: the pest or weed control at 125 g/ha in assay [1] (setting [12]) stood at 90%; in assay [2] (setting [13]), 0%; in [3] (setting [14]), 20%; in [5] (setting [16]), 20%; in assay [6] (setting [17]), 30%; in assay [7] (setting [18]), 10%. In addition, the pest or weed control at 125 g/ha in assay [8] (setting [19]) was 90%; in the assay with Kochia (Kochia scoparia) (setting [20]) it was 0%. The plant injury at 125 g/ha in assay [4] (setting [15]) stood at 50%. Besides, in the assay on corn (Zea mays) (125 g ai/ha, postemergence), the Corn plant response rating (crop injury, 0 = no effect, 100 = complete kill) at 125 g/ha came to 40%. Further, the pest or weed control at 250 g/ha came out at 100% in [9], 0% in the assay on rice (Oryra sativa), 60% in [10] and 0% in assay [11].
